Data taken from publication PMC12566593, “Effects of Different Centrifugation Parameters on Equilibrium Solubility Measurements” (Methods and Protocols, 2025).
Structures can show the parent of a compound that is named as a salt. Where two headings read alike, the source gives them in different places.

Assays:
[1] = Ionization state calculated from pKa and buffer pH; assay type: physicochemical; settings: pH 6.4
Excerpt: Depending on the pH, the molecule exists as the neutral acid (H2A), monoanion (HA^−), or dianion (A^2−). […] These values were derived from the mole fraction (x) of the various species, based on the compound’s known pKa values and the corresponding buffer pH (Equations (3)–(6)).

[2] = cited from earlier work; for Filtration: Result Range: % of reference, all filters
[3] = Equilibrium solubility, saturation shake-flask, centrifugation as phase separation; settings: for solubility thermodynamic / solubility thermodynamic at 24 h: Britton-Robinson buffer; for solubility thermodynamic: sedimented before centrifugation; for solubility thermodynamic at 24 h: continuously stirred, no sedimentation; for Centrifugation: Result Range: % of reference, all centrifugation protocols
Description: To determine equilibrium solubility, the samples were added to Britton-Robinson buffer solutions (BRB) adjusted to specific pH values, obtaining a heterogenous system (Table S2). BR buffers were used in the experiments across a pH range of 2.0 to 11.0, prepared by combining 0.04 M acetic acid, 0.04 M phosphoric acid, and 0.04 M boric acid. The mixture was then titrated with varying amounts of 0.2 M NaOH to achieve the desired pH values. The ionic strength was kept constant (I = 0.15) across all pH values using appropriate amounts of inert KCl. […] The exception was progesterone, a neutral molecule, for which only a single pH condition was necessary. […] This strategy enabled a more comprehensive assessment of how centrifugation parameters influence solubility. Different amounts of 0.2 M NaOH were used to adjust the pH of the buffer to the desired values, between pH 2.0 and 11.0.
(§1) Samples were stirred using the μDISS Profiler™ (Pion Inc., Billerica, MA, USA) at 150 rpm [33], the pH was checked after 1 h and adjusted, if necessary, with either 0.1 M HCl or 0.1 M NaOH. To confirm the reliability of the results, the pH was measured again at the end of each experiment. Prior to centrifugation, two different approaches were applied: stirring samples for 6 h, followed by 18 h of sedimentation, according to the standardized protocol [18], or continuously stirring samples for 24 h, without a subsequent sedimentation step.
From each sample, aliquots of 10 mL were transferred into centrifugation tubes and centrifuged using a Sartorius 2–16P type centrifuge.
(§2) After centrifugation, the concentration was measured by the μDISS Profiler™ (Pion Inc., Billerica, MA, USA) equipped with UV probes. The aliquots were diluted with the buffer solution if necessary. The 2nd derivative method was utilized in the AuPRO™ 7.1 software (Pion Inc., Billerica, MA, USA) to determine the concentration of the samples after a calibration was conducted for each substance. Calibration was performed by adding small volumes of methanolic stock solutions with known concentrations to buffer solutions of defined pH. Separate calibration curves were prepared for each UV probe.
At least three parallel measurements were carried out for each compound with each combination of variables (Table S1). Equilibrium solubility measurements using centrifugation were compared to those obtained by using only sedimentation.

[4] = Equilibrium solubility, saturation shake-flask, sedimentation as phase separation (reference, standard protocol); settings: for solubility: Britton-Robinson buffer
Excerpt: BR buffers were used in the experiments across a pH range of 2.0 to 11.0, prepared by combining 0.04 M acetic acid, 0.04 M phosphoric acid, and 0.04 M boric acid. The mixture was then titrated with varying amounts of 0.2 M NaOH to achieve the desired pH values. The ionic strength was kept constant (I = 0.15) across all pH values using appropriate amounts of inert KCl. […] Different amounts of 0.2 M NaOH were used to adjust the pH of the buffer to the desired values, between pH 2.0 and 11.0.
as §1, §2
At least three parallel measurements were carried out for each compound with each combination of variables (Table S1).

With COc1ccc(Cc2nccc3cc(OC)c(OC)cc23)cc1OC [PAP-HCL, papaverine hydrochloride] as the compound, how does the Fraction ionized [1] read?
The Fraction ionized was 50%.

And the “Filtration: Result Range” value ([2]; pH 3.0)?
The value was 85–95%.

And the “Filtration: Closest to Reference (100%)” value ([2]; pH 3.0)?
Its value is 95%.

And the “Filtration: Result Range” value ([2]; pH 6.4)?
The value was 42–106%.

What about the “Filtration: Closest to Reference (100%)” value ([2]; pH 6.4) of the same compound?
Its value is 95%.

What about the “Filtration: Result Range” value ([2]; pH 10.0) of the same compound?
Its value is 62–95%.

What about the “Filtration: Closest to Reference (100%)” value ([2]; pH 10.0) of the same compound?
The value was 95%.

And the “Solubility higher than the reference” value ([3]; 10,000 rpm for 20 min without prior sedimentation)?
Its value is 60–70%.

And the solubility thermodynamic ([3]; 25 °C, pH 3, aqueous buffer, thermodynamic from solid, Equilibrium solubility S sed, pH 3.0, 5000 rpm, 5 min)?
Its solubility thermodynamic is 37200 µg/mL.

What about the solubility thermodynamic ([3]; 25 °C, pH 3, aqueous buffer, thermodynamic from solid, Equilibrium solubility S sed, pH 3.0, 5000 rpm, 10 min) of the same compound?
The solubility thermodynamic was 38000 µg/mL.

What about the solubility thermodynamic ([3]; 25 °C, pH 3, aqueous buffer, thermodynamic from solid, Equilibrium solubility S sed, pH 3.0, 5000 rpm, 20 min) of the same compound?
The solubility thermodynamic was 37100 µg/mL.

What about the solubility thermodynamic ([3]; 25 °C, pH 3, aqueous buffer, thermodynamic from solid, Equilibrium solubility S sed, pH 3.0, 10,000 rpm, 5 min) of the same compound?
Its solubility thermodynamic is 39500 µg/mL.

What about the solubility thermodynamic ([3]; 25 °C, pH 3, aqueous buffer, thermodynamic from solid, Equilibrium solubility S sed, pH 3.0, 10,000 rpm, 10 min) of the same compound?
Its solubility thermodynamic is 40900 µg/mL.

And the solubility thermodynamic ([3]; 25 °C, pH 3, aqueous buffer, thermodynamic from solid, Equilibrium solubility S sed, pH 3.0, 10,000 rpm, 20 min)?
Its solubility thermodynamic is 39500 µg/mL.

And the solubility thermodynamic at 24 h ([3]; 25 °C, pH 3, aqueous buffer, thermodynamic from solid, Equilibrium solubility S stir, pH 3.0, 5000 rpm, 5 min)?
The solubility thermodynamic at 24 h was 36800 µg/mL.

And the solubility thermodynamic at 24 h ([3]; 25 °C, pH 3, aqueous buffer, thermodynamic from solid, Equilibrium solubility S stir, pH 3.0, 5000 rpm, 10 min)?
The solubility thermodynamic at 24 h was 41100 µg/mL.

And the solubility thermodynamic at 24 h ([3]; 25 °C, pH 3, aqueous buffer, thermodynamic from solid, Equilibrium solubility S stir, pH 3.0, 5000 rpm, 20 min)?
Its solubility thermodynamic at 24 h is 38400 µg/mL.

What about the solubility thermodynamic at 24 h ([3]; 25 °C, pH 3, aqueous buffer, thermodynamic from solid, Equilibrium solubility S stir, pH 3.0, 10,000 rpm, 5 min) of the same compound?
The solubility thermodynamic at 24 h was 39100 µg/mL.

What about the solubility thermodynamic at 24 h ([3]; 25 °C, pH 3, aqueous buffer, thermodynamic from solid, Equilibrium solubility S stir, pH 3.0, 10,000 rpm, 10 min) of the same compound?
The solubility thermodynamic at 24 h was 40400 µg/mL.

What about the solubility thermodynamic at 24 h ([3]; 25 °C, pH 3, aqueous buffer, thermodynamic from solid, Equilibrium solubility S stir, pH 3.0, 10,000 rpm, 20 min) of the same compound?
The solubility thermodynamic at 24 h was 39300 µg/mL.

What about the solubility thermodynamic ([3]; 25 °C, pH 6.4, aqueous buffer, thermodynamic from solid, Equilibrium solubility S sed, pH 6.4, 5000 rpm, 5 min) of the same compound?
Its solubility thermodynamic is 24.4 ± 0.48 µg/mL.

And the solubility thermodynamic ([3]; 25 °C, pH 6.4, aqueous buffer, thermodynamic from solid, Equilibrium solubility S sed, pH 6.4, 5000 rpm, 10 min)?
The solubility thermodynamic was 28.2 ± 0.78 µg/mL.

What about the solubility thermodynamic ([3]; 25 °C, pH 6.4, aqueous buffer, thermodynamic from solid, Equilibrium solubility S sed, pH 6.4, 5000 rpm, 20 min) of the same compound?
Its solubility thermodynamic is 28.2 ± 0.73 µg/mL.

What about the solubility thermodynamic ([3]; 25 °C, pH 6.4, aqueous buffer, thermodynamic from solid, Equilibrium solubility S sed, pH 6.4, 10,000 rpm, 5 min) of the same compound?
Its solubility thermodynamic is 24.4 ± 1.17 µg/mL.

And the solubility thermodynamic ([3]; 25 °C, pH 6.4, aqueous buffer, thermodynamic from solid, Equilibrium solubility S sed, pH 6.4, 10,000 rpm, 10 min)?
The solubility thermodynamic was 32.8 ± 0.81 µg/mL.

And the solubility thermodynamic ([3]; 25 °C, pH 6.4, aqueous buffer, thermodynamic from solid, Equilibrium solubility S sed, pH 6.4, 10,000 rpm, 20 min)?
The solubility thermodynamic was 31.2 ± 1.08 µg/mL.

What about the solubility thermodynamic at 24 h ([3]; 25 °C, pH 6.4, aqueous buffer, thermodynamic from solid, Equilibrium solubility S stir, pH 6.4, 5000 rpm, 5 min) of the same compound?
Its solubility thermodynamic at 24 h is 33 ± 2.11 µg/mL.

And the solubility thermodynamic at 24 h ([3]; 25 °C, pH 6.4, aqueous buffer, thermodynamic from solid, Equilibrium solubility S stir, pH 6.4, 5000 rpm, 10 min)?
Its solubility thermodynamic at 24 h is 32.3 ± 1.54 µg/mL.

What about the solubility thermodynamic at 24 h ([3]; 25 °C, pH 6.4, aqueous buffer, thermodynamic from solid, Equilibrium solubility S stir, pH 6.4, 5000 rpm, 20 min) of the same compound?
The solubility thermodynamic at 24 h was 32.9 ± 1.26 µg/mL.

And the solubility thermodynamic at 24 h ([3]; 25 °C, pH 6.4, aqueous buffer, thermodynamic from solid, Equilibrium solubility S stir, pH 6.4, 10,000 rpm, 5 min)?
The solubility thermodynamic at 24 h was 28.6 ± 1.55 µg/mL.

And the solubility thermodynamic at 24 h ([3]; 25 °C, pH 6.4, aqueous buffer, thermodynamic from solid, Equilibrium solubility S stir, pH 6.4, 10,000 rpm, 10 min)?
The solubility thermodynamic at 24 h was 37.8 ± 2.07 µg/mL.

And the solubility thermodynamic at 24 h ([3]; 25 °C, pH 6.4, aqueous buffer, thermodynamic from solid, Equilibrium solubility S stir, pH 6.4, 10,000 rpm, 20 min)?
The solubility thermodynamic at 24 h was 39.1 ± 1.34 µg/mL.

And the solubility thermodynamic ([3]; 25 °C, pH 10, aqueous buffer, thermodynamic from solid, Equilibrium solubility S sed, pH 10.0, 5000 rpm, 10 min)?
Its solubility thermodynamic is 14.3 ± 0.17 µg/mL.

And the solubility thermodynamic ([3]; 25 °C, pH 10, aqueous buffer, thermodynamic from solid, Equilibrium solubility S sed, pH 10.0, 10,000 rpm, 5 min)?
Its solubility thermodynamic is 16.3 ± 0.57 µg/mL.

What about the solubility thermodynamic ([3]; 25 °C, pH 10, aqueous buffer, thermodynamic from solid, Equilibrium solubility S sed, pH 10.0, 10,000 rpm, 10 min) of the same compound?
The solubility thermodynamic was 17.5 ± 0.18 µg/mL.

What about the solubility thermodynamic ([3]; 25 °C, pH 10, aqueous buffer, thermodynamic from solid, Equilibrium solubility S sed, pH 10.0, 10,000 rpm, 20 min) of the same compound?
Its solubility thermodynamic is 18.7 ± 2.41 µg/mL.

And the solubility thermodynamic at 24 h ([3]; 25 °C, pH 10, aqueous buffer, thermodynamic from solid, Equilibrium solubility S stir, pH 10.0, 5000 rpm, 5 min)?
The solubility thermodynamic at 24 h was 18.4 ± 0.28 µg/mL.

What about the solubility thermodynamic at 24 h ([3]; 25 °C, pH 10, aqueous buffer, thermodynamic from solid, Equilibrium solubility S stir, pH 10.0, 10,000 rpm, 10 min) of the same compound?
Its solubility thermodynamic at 24 h is 18.2 ± 1.12 µg/mL.

And the solubility thermodynamic at 24 h ([3]; 25 °C, pH 10, aqueous buffer, thermodynamic from solid, Equilibrium solubility S stir, pH 10.0, 10,000 rpm, 20 min)?
The solubility thermodynamic at 24 h was 28.7 ± 0.7 µg/mL.

And the solubility thermodynamic ([3]; pH 10, Equilibrium solubility S sed, pH 10.0, 5000 rpm, 5 min)?
The solubility thermodynamic was 17 ± 0.86 µg/mL.

What about the solubility thermodynamic ([3]; pH 10, Equilibrium solubility S sed, pH 10.0, 5000 rpm, 20 min) of the same compound?
The solubility thermodynamic was 14.4 ± 0.38 µg/mL.

What about the solubility thermodynamic at 24 h ([3]; pH 10, Equilibrium solubility S stir, pH 10.0, 5000 rpm, 10 min) of the same compound?
The solubility thermodynamic at 24 h was 13.3 ± 0.2 µg/mL.

And the solubility thermodynamic at 24 h ([3]; pH 10, Equilibrium solubility S stir, pH 10.0, 5000 rpm, 20 min)?
The solubility thermodynamic at 24 h was 16.9 ± 0.79 µg/mL.

What about the solubility thermodynamic at 24 h ([3]; pH 10, Equilibrium solubility S stir, pH 10.0, 10,000 rpm, 5 min) of the same compound?
Its solubility thermodynamic at 24 h is 17.8 ± 0.5 µg/mL.

And the “Centrifugation: Closest to Reference (100%)” value (shortened to “Centrifugation … (100%)”) ([3]; pH 3.0)?
Its value is 100%.

What about the “Centrifugation: Result Range” value ([3]; pH 3.0) of the same compound?
The value was 91–102%.

What about the “Centrifugation … (100%)” value ([3]; pH 6.4) of the same compound?
Its value is 101%.

And the “Centrifugation: Result Range” value ([3]; pH 6.4)?
The value was 101–162%.

And the “Centrifugation … (100%)” value ([3]; pH 10.0)?
The value was 100%.

And the “Centrifugation: Result Range” value ([3]; pH 10.0)?
Its value is 78–170%.

And the “Solubility compared to the other samples” value ([3]; pH 10.0, higher centrifugation speed, 20 min of centrifugation)?
The value was “nearly doubled”.

And the solubility ([4]; 25 °C, pH 3, aqueous buffer, thermodynamic from solid, Solubility (reference), pH 3.0, 6 h stirring, 18 h sedimentation)?
The solubility was 40400 µg/mL.

And the solubility ([4]; 25 °C, pH 6.4, aqueous buffer, thermodynamic from solid, Solubility (reference), pH 6.4, 6 h stirring, 18 h sedimentation)?
The solubility was 24.2 ± 1.1 µg/mL.

What about the solubility ([4]; pH 10, Solubility (reference), pH 10.0, 6 h stirring, 18 h sedimentation, 25 °C) of the same compound?
The solubility was roughly 17 µg/mL.

What about the “Solubility at pH 3.0 relative to pH 10.0” value ([4]; fully ionized vs neutral form) of the same compound?
The value was “around 2350 times”.

And the “Solubility (reference)” value ([4]; pH 10.0, 6 h stirring, 18 h sedimentation, 25 °C)?
Its value is 16.9 ± 1.7 µg/mL.
